The values below come from patent publication US6358736B1, “Method for increasing the antigen presenting ability of leukemia cells” (The United States of America as represented by the …, priority 1995, dated 2002).

This assay has as its system human peripheral blood monocytes. Put plainly: FACS analysis of cell surface markers on cultured peripheral blood monocytes. It counts as cell-based. The note with it: for effect of agent on ionophore-induced activated myeloid dendritic cell phenotype: added to calcium ionophore treatment. A general note: In flow cytometry, cells or beads pass a laser one at a time.
[1] abbreviates: KT5926 1 uM, 750 ng/ml ionophore, 24 hours.

Each structure is given as a SMILES string. “Also recorded” adds a separate entry of the source.

Turning to `C[C@H]1O[C@@H](n2cnc3c(N)ncnc32)C[C@@H]1O` [2′5′-DDA], the “effect of agent on ionophore-induced activated myeloid dendritic cell phenotype” value is “enhanced CD14 downregulation and upregulation of costimulatory, MHC, and other molecule expression”.
On the same count and under the same terms, the result for `CN([C@@H](Cc1ccc(OS(=O)(=O)c2cccc3cnccc23)cc1)C(=O)N1CCN(c2ccccc2)CC1)S(=O)(=O)c1cccc2cnccc12` [KN-62] reads “inhibited at least some of the ionophore's effects”; that for `COC(=O)[C@@]1(OC)C[C@H]2O[C@]1(C)n1c3ccccc3c3c4c(c5c6ccccc6n2c5c31)C(=O)N(C)C4` [KT5823], “inhibited at least some of the ionophore's effects”.
As for `CCCOc1ccc2c(c1)c1c3c(c4c5ccccc5n5c4c1n2[C@H]1C[C@](O)(C(=O)OC)[C@]5(C)O1)CNC3=O` [KT-5926], the “effect of agent on ionophore-induced activated myeloid dendritic cell phenotype” value is “inhibited at least some of the ionophore's effects”. Under setting [1], the “suppression of CD40” value is listed as more than 50%, the “suppression of CD80” value is reported as more than 60%, the “suppression of CD86” value is “about 50%” and the “suppression of HLA-ABC” value is listed as “over 40%”. Besides, the “suppression of HLA-DR” value under setting [1] was “modest, but detectable suppression”.
Turning to `CCCCC[C@H](O)/C=C/[C@H]1[C@H](O)CC(=O)[C@@H]1C/C=C\CCCC(=O)O` [PGE2], the “effect of agent on ionophore-induced activated myeloid dendritic cell phenotype” value is listed as “inhibited at least some of the ionophore's effects”.
With `C[C@@H]1[C@H](O)[C@@H](C)/C=C/C=C/C=C/C=C/C=C/C=C/C=C/[C@H](O[C@@H]2O[C@H](C)[C@@H](O)[C@H](N)[C@@H]2O)C[C@@H]2O[C@](O)(C[C@@H](O)C[C@@H](O)[C@H](O)CC[C@@H](O)C[C@@H](O)CC(=O)O[C@H]1C)C[C@H](O)[C@H]2C(=O)O` [amphotericin B], the “effect of agent on ionophore-induced activated myeloid dendritic cell phenotype” value is listed as “enhanced the induction of an activated myeloid dendritic cell phenotype; also recorded: enhance calcium ionophore's effect”. For the same compound, the “effect of agent alone on monocytes” value (without ionophore) is given as “no or little effect alone”.
For the compound `CCCC(=O)Nc1ncnc2c1ncn2[C@@H]1O[C@@H]2COP(=O)(O)O[C@H]2[C@H]1OC(=O)CCC` [dibutryl cAMP], the “effect of agent on ionophore-induced activated myeloid dendritic cell phenotype” value was “inhibited at least some of the ionophore's effects”.
The same measure, in the same setting: next, `CCCC(=O)Nc1nc2c(ncn2C2O[C@H]3COP(=O)(O)O[C@@H]3[C@@H]2OC(=O)CCC)c(=O)[nH]1` (stereo partly drawn) [dibutryl cGMP]: “enhanced CD14 downregulation and upregulation of costimulatory, MHC, and other molecule expression”; `CO[C@H]1[C@@H](OC)C[C@H](C)[C@@H](OC)C2=CC(=O)C=C(NC(=O)/C(C)=C/C=C\[C@H](OC)[C@@H](OC(N)=O)/C(C)=C/[C@@H]1C)C2=O` [herbimycin A]: “inhibited at least some of the ionophore's effects”.
In the case of `C[C@H](CCC(=O)O)C[C@H](C)C[C@H](C)C(=O)/C=C(\O)[C@H](C)C[C@H](C)C/C=C/[C@@H](C)[C@@H](O)[C@@H](C)[C@@H](O)C[C@@H]1CC[C@@](C)([C@H]2CC[C@@](C)([C@@H](C)O)O2)O1` [ionomycin], the “activation and dendritic cell phenotypic conversion of pooled monocyte plus DC fractions” value (added at the beginning of a 24-48 hr culture period) was “uniform activation and dendritic cell phenotypic conversion”.
Take `C=C1[C@@H](O)[C@@H]2O[C@]3(CC[C@H](/C=C/[C@@H](C)[C@@H]4CC(C)=C[C@@]5(O[C@H](C[C@@](C)(O)C(=O)O)CC[C@H]5O)O4)O3)CC[C@H]2O[C@@H]1[C@@H](O)C[C@H](C)[C@H]1O[C@@]2(CCCCO2)CC[C@H]1C` [okadaic acid]: the “effect of agent on ionophore-induced activated myeloid dendritic cell phenotype” value is “enhanced CD14 downregulation and upregulation of costimulatory, MHC, and other molecule expression”.
Same read-out and setting: the result for `C[C@]12C=CC(=O)C=C1CC[C@@H]1[C@@H]2[C@@H](O)C[C@@]2(C)[C@H]1CC[C@]2(O)C(=O)CO` [prednisolone] reads “inhibited at least some of the ionophore's effects”.
